Where two headings read alike, the source gives them in different places.
Key:
human C1r = target: T1, human C1r (Homo sapiens, UniProt P00736); experiment: Human C1r enzyme assay; format: biochemical; conditions: supplementary csv
T1 construct: Recombinant human C1r (375–705 aa) fused with both the N-terminal IgG signal peptide; IgG signal peptide (N); His tag (C); made in house; host or cells: HEK293 cells
T1 sequence (P00736 375-705): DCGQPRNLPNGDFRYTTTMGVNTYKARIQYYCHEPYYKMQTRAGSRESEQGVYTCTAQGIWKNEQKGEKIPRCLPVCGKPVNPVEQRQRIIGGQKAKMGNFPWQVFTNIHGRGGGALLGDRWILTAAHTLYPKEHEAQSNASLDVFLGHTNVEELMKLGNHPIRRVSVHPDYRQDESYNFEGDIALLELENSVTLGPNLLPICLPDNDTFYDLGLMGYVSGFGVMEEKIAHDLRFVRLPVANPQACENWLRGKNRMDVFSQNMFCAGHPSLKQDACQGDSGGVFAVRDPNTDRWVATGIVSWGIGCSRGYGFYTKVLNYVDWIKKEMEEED
From the text: Recombinant human C1r (375–705 aa) fused with both the N-terminal IgG signal peptide and the C-terminal His tag was expressed in HEK293 cells and purified. Human C1r assay conditions were the same as for human C1s, except that the enzyme solution concentration was 3 nmol/L and the substrate peptide was 250 μmol/L Z-Gly-Arg-SBzl (custom synthesis from Peptide Institute, Osaka, Japan) instead of Z-Lys-SBzl.

human thrombin = target: T2, human thrombin (Homo sapiens, UniProt P00734); experiment: Human thrombin enzyme assay; format: biochemical; conditions: supplementary csv
T2 construct: purchased AnaSpec
Description: The human thrombin enzyme activity was determined by a SensoLyte 520 thrombin activity assay kit (AnaSpec, CA, USA). Purified human thrombin and the substrate were diluted in the assay buffer 1. After 20 nL of compound solution was added to a 384-well black plate, 3 μL of the 2 μmol/L 5-FAM/QXLTM 520 thrombin substrate was added to the plate. Then, 8 nmol/L human thrombin was added to the plate and incubated at room temperature for 60 min. The fluorescence at an excitation wavelength of 485 nm and an emission wavelength of 535 nm was detected using an EnVision multilabel plate reader.

human trypsin = experiment: Human trypsin enzyme assay; format: biochemical; conditions: supplementary csv
Description: Recombinant human trypsin (FUJIFILM Wako, Osaka, Japan) and the substrate were diluted in an assay buffer [50 mmol/L Tris–HCl (pH 7.5), 145 mmol/L NaCl, 2 mmol/L CaCl2, and 0.01% (w/v) Tween 20]. After 20 nL of compound solution was added to a 384-well black plate, 3 μL of substrate solution containing 25 μmol/L Boc-Phe-Ser-Arg-MCA (Peptide Institute, Osaka, Japan) was added to the plate. Then, 6 mU/mL human trypsin was added to the plate and incubated at room temperature for 60 min. The fluorescence at an excitation wavelength of 360 nm and an emission wavelength of 460 nm was detected using an EnVision multilabel plate reader.

human kallikrein = experiment: Human kallikrein enzyme assay; format: biochemical; conditions: supplementary csv
Description: Recombinant human kallikrein (R&D Systems, MN, USA) was activated by thermolysin (R&D Systems, MN, USA) prior to use. Compounds were dissolved in DMSO and then diluted in an assay buffer [50 mmol/L Tris–HCl (pH 7.5), 150 mmol/L NaCl, 10 mmol/L CaCl2, and 0.01% (w/v) Tween 20]. After 5 μL of compound solution was added to a 384-well black plate, 5 μL of substrate solution containing 150 μmol/L Pro-Phe-Arg-AMC (Peptide Institute, Osaka, Japan) was added to the plate. Then, 0.42 nmol/L human kallikrein was added to the plate and incubated at room temperature for 60 min. The fluorescence at an excitation wavelength of 380 nm and an emission wavelength of 460 nm was detected using a SpectraMax Paradigm plate reader.

[1] = target: T3, Human Multidrug Resistance 1 (MDR-1) Expressing Cells (Homo sapiens, UniProt P08183); experiment: Membrane permeability with human MDR-1 expressing cells; format: in vitro ADME; conditions: supplementary csv
T3 construct: expressed in transfected cells
Description: (§1) The transcellular transport study was performed as reported previously.[31] In brief, the cells were grown in an HTS Transwell 96-well permeable support (pore size of 0.4 μm, 0.143 cm^2 surface area) with a polyethylene terephthalate membrane (Corning Life Sciences, Lowell, MA, USA) at a density of 1.125 × 10^5 cells/well. The cells were preincubated with M199 at 37 °C for 30 min. Subsequently, transcellular transport was initiated by the addition of M199 to apical compartments containing 1 μmol/L test compounds and terminated by the removal of each assay plate after 2 h. The aliquots in the opposite compartments were subjected to measurement for compound concentration by LC–MS/MS. Permeability was calculated using the permeated compound concentration.

MDR1 (P-gp) = target: T4, MDR1 (P-gp) (Homo sapiens, UniProt P08183); experiment: as above; format: in vitro ADME; conditions: human; MDR1-expressing cells, 1 μmol/L, 2 h
T4 construct: expressed in transfected cells
Description: as §1

[2] = Pharmacokinetics analysis in mice (oral; plasma and brain); format: in vivo; conditions: for AUC0-24h / Cmax / MRT: plasma; for concentration at 2 h / Kp at 2 h / concentration at 24 h: male, C57BL/6J, mouse, brain; for Kp at 2 h: read-out: Brain to plasma ratio 2 h
Description: Male C57BL/6J mice were purchased from The Jackson Laboratory Japan, Inc. (Kanagawa, Japan). […] The compound was dissolved in 10% DMSO/10% Cremophor EL/20% PEG400/60% 0.1 mol/L citric acid solution and administered orally at doses of 10, 30, or 100 mg/kg. Blood samples were collected into heparinized tubes at the designated time points (0.5, 1, 2, 4, 8, and 24 h postdosing), and brains were also collected at 2 and 24 h postdosing. Plasma was separated from the blood samples by centrifugation. The plasma and brain concentrations were quantified with high-performance liquid chromatography–tandem mass spectrometry. The lower limit of quantitation was 1 ng/mL for plasma and 5 ng/mL for brains.

Cc1cc([C@H]2CN(c3cc(F)c4c(N)nncc4c3)CCN2c2cccc(F)c2)no1 [Compound (R)-8, 8-Fluoro-6-[(3R)-4-(3-fluorophenyl)-3-(5-methyl-1,2-oxazol-3-yl)piperazin-1-yl]phthalazin-1-amine]
IC50 (human C1r): > 30 µM
IC50 (human thrombin): > 30 µM
IC50 (human trypsin): > 30 µM
IC50 (human kallikrein): > 30 µM
MDR1 (A to B) [1]: 14 nm/s
Papp A→B at 2 h, 1 μmol/L (MDR1 (P-gp)): 1.4 ×10⁻⁶ cm/s
AUC0-24h ([2]; 10 mg/kg): 6017.8 ± 390.4 ng·h/mL
Cmax ([2]; 10 mg/kg): 1032.5 ± 173.0 ng/mL
MRT ([2]; 10 mg/kg): 4.31 ± 0.23 h
AUC0-24h ([2]; 30 mg/kg): 21928.6 ± 1428.2 ng·h/mL
Cmax ([2]; 30 mg/kg): 2583.3 ± 267.1 ng/mL
MRT ([2]; 30 mg/kg): 5.02 ± 0.18 h
AUC0-24h ([2]; 100 mg/kg): 139341.0 ± 36760.1 ng·h/mL
Cmax ([2]; 100 mg/kg): 8895.5 ± 1516.8 ng/mL
MRT ([2]; 100 mg/kg): 7.66 ± 0.99 h
concentration at 2 h ([2]; 10 mg/kg): 560 ± 106 ng/g
Kp at 2 h ([2]; 10 mg/kg): 0.7
concentration at 24 h ([2]; 10 mg/kg): 5.2 ± 0.2 ng/g
concentration at 2 h ([2]; 30 mg/kg): 3830 ± 935 ng/g
Kp at 2 h ([2]; 30 mg/kg): 1.7
concentration at 24 h ([2]; 30 mg/kg): 8.9 ± 3.8 ng/g
concentration at 2 h ([2]; 100 mg/kg): 33600 ± 19300 ng/g
Kp at 2 h ([2]; 100 mg/kg): 6
concentration at 24 h ([2]; 100 mg/kg): 1860 ± 2400 ng/g

— PMC10184130
